pIC50: −log10 of the molar value. Structures can show the parent of a compound that is named as a salt.

The assay concerns A/PuertoRico/8/1934 (H1N1 H274Y). It counts as cell-based, influenza A virus.
Compound `CCCN(CCc1cccs1)[C@H]1CCc2c(O)cccc2C1` [Rotigotine] gave a pIC50 of 5.07.

In the case of `CC(COc1ccccc1)NC(C)C(O)c1ccc(O)cc1` (stereo not drawn) [Isoxsuprine, Isoxsuprine hydrochloride], the pIC50 is 5.03.

Consider `O=C(c1ccc(OCCCc2cnc[nH]2)cc1)C1CC1` [Ciproxifan], for which the pIC50 was 5.23.

As usually defined, the pIC50 is the negative decadic logarithm of the IC50, by convention in mol/L. Read a high pIC50 as a low IC50.
